# Reference: ChEMBL document CHEMBL1128686, “Technetium-99m-labeled HOE 140: a potential bradykinin B2 receptor imaging agent” (J Med Chem, 1995)
# Tests used:
# Rattus norvegicus [1] = experiment: Distribution in bladder and urine of healthy rat 5 min after iv injection into the femoral vein; format: ADME, organism-based, Urinary bladder/Urine; details: in vivo
# Rattus norvegicus [2] = experiment: Distribution in thyroid gland of healthy rat 15 min after iv injection into the femoral vein; format: ADME, organism-based; details: in vivo, 0.25 h
# Rattus norvegicus [3] = experiment: Distribution in lung of healthy rat 15 min after iv injection into the femoral vein; format: ADME, organism-based; details: in vivo, 0.25 h
# Rattus norvegicus [4] = experiment: Distribution in small intestine of healthy rat 24 hr after iv injection into the femoral vein; format: ADME, organism-based; details: in vivo
# Rattus norvegicus [5] = experiment: Distribution in thyroid gland of healthy rat 24 hr after iv injection into the femoral vein; format: ADME, organism-based; details: in vivo
# Rattus norvegicus [6] = experiment: Distribution in content of colon of healthy rat 15 min after iv injection into the femoral vein; format: ADME, organism-based; details: in vivo, 0.25 h
# Rattus norvegicus [7] = experiment: Distribution in thyroid gland of healthy rat 5 min after iv injection into the femoral vein; format: ADME, organism-based; details: in vivo
# Rattus norvegicus [8] = experiment: Distribution in bladder and urine of healthy rat 15 min after iv injection into the femoral vein; format: ADME, organism-based, Urinary bladder/Urine; details: in vivo, 0.25 h
# Rattus norvegicus [9] = experiment: Distribution in liver of healthy rat 15 min after iv injection into the femoral vein; format: ADME, organism-based; details: in vivo, 0.25 h
# B2 bradykinin receptor [10] = target: T1, B2 bradykinin receptor (Cavia porcellus, UniProt O70526); experiment: In vitro antagonistic activity for Bradykinin receptor B2 by guinea pig ileal membrane receptor assay.; format: functional
# T1 sequence (O70526 whole entry): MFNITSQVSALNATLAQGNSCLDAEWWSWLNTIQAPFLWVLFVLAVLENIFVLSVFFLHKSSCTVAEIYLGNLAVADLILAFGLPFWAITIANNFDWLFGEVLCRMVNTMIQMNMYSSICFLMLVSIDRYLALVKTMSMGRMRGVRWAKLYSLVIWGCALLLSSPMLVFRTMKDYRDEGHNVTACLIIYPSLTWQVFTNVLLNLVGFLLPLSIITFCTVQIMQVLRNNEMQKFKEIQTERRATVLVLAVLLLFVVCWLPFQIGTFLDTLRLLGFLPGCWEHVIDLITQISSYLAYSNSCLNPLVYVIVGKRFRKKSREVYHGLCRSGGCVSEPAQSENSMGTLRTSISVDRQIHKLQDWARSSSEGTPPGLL
# Rattus norvegicus [11] = experiment: Distribution in blood of healthy rat 5 min after iv injection into the femoral vein; format: ADME, organism-based; details: in vivo
# Rattus norvegicus [12] = experiment: Distribution in stomach of healthy rat 4 hr after iv injection into the femoral vein; format: ADME, organism-based; details: in vivo
# Rattus norvegicus [13] = experiment: Distribution in liver of healthy rat 5 min after iv injection into the femoral vein; format: ADME, organism-based; details: in vivo
# Rattus norvegicus [14] = experiment: Distribution in spleen of healthy rat 4 hr after iv injection into the femoral vein; format: ADME, organism-based; details: in vivo
# Rattus norvegicus [15] = experiment: Distribution in kidney of healthy rat 5 min after iv injection into the femoral vein; format: ADME, organism-based; details: in vivo
# Rattus norvegicus [16] = experiment: Distribution in content of small intestine of healthy rat 15 min after iv injection into the femoral vein; format: ADME, organism-based; details: in vivo, 0.25 h
# Rattus norvegicus [17] = experiment: Distribution in lung of healthy rat 30 min after iv injection into the femoral vein; format: ADME, organism-based; details: in vivo, 0.5 h
# Rattus norvegicus [18] = experiment: Distribution in content of colon of healthy rat 30 min after iv injection into the femoral vein; format: ADME, organism-based; details: in vivo, 0.5 h
# Rattus norvegicus [19] = experiment: Distribution in bladder and urine of healthy rat 4 hr after iv injection into the femoral vein; format: ADME, organism-based, Urinary bladder/Urine; details: in vivo
# Rattus norvegicus [20] = experiment: Distribution in colon of healthy rat 30 min after iv injection into the femoral vein; format: ADME, organism-based; details: in vivo, 0.5 h
# Rattus norvegicus [21] = experiment: Distribution in stomach of healthy rat 30 min after iv injection into the femoral vein; format: ADME, organism-based; details: in vivo, 0.5 h
# Rattus norvegicus [22] = experiment: Distribution in content of small intestine of healthy rat 5 min after iv injection into the femoral vein; format: ADME, organism-based; details: in vivo
# Rattus norvegicus [23] = experiment: Distribution in kidney of healthy rat 4 hr after iv injection into the femoral vein; format: ADME, organism-based; details: in vivo
# Rattus norvegicus [24] = experiment: Distribution in content of small intestine of healthy rat 30 min after iv injection into the femoral vein; format: ADME, organism-based; details: in vivo, 0.5 h
# Rattus norvegicus [25] = experiment: Distribution in colon of healthy rat 24 hr after iv injection into the femoral vein; format: ADME, organism-based; details: in vivo
# Rattus norvegicus [26] = experiment: Distribution in colon of healthy rat 4 hr after iv injection into the femoral vein; format: ADME, organism-based; details: in vivo
# Rattus norvegicus [27] = experiment: Distribution in liver of healthy rat 30 min after iv injection into the femoral vein; format: ADME, organism-based; details: in vivo, 0.5 h
# Rattus norvegicus [28] = experiment: Distribution in bladder and urine of healthy rat 24 hr after iv injection into the femoral vein; format: ADME, organism-based, Urinary bladder/Urine; details: in vivo
# Rattus norvegicus [29] = experiment: Distribution in blood of healthy rat 4 hr after iv injection into the femoral vein; format: ADME, organism-based; details: in vivo
# Rattus norvegicus [30] = experiment: Distribution in colon of healthy rat 5 min after iv injection into the femoral vein; format: ADME, organism-based; details: in vivo
# Rattus norvegicus [31] = experiment: Distribution in content of small intestine of healthy rat 24 hr after iv injection into the femoral vein; format: ADME, organism-based; details: in vivo
# Rattus norvegicus [32] = experiment: Distribution in small intestine of healthy rat 4 hr after iv injection into the femoral vein; format: ADME, organism-based; details: in vivo
# B2 bradykinin receptor [33] = target: T1, B2 bradykinin receptor; experiment: In vitro antagonistic activity for Bradykinin receptor B2 by guinea pig pulmonary artery assay.; format: functional
# Rattus norvegicus [34] = experiment: Distribution in thyroid gland of healthy rat 30 min after iv injection into the femoral vein; format: ADME, organism-based; details: in vivo, 0.5 h
# Rattus norvegicus [35] = experiment: Distribution in kidney of healthy rat 24 hr after iv injection into the femoral vein; format: ADME, organism-based; details: in vivo
# Rattus norvegicus [36] = experiment: Distribution in colon of healthy rat 15 min after iv injection into the femoral vein; format: ADME, organism-based; details: in vivo, 0.25 h
# Rattus norvegicus [37] = experiment: Distribution in kidney of healthy rat 30 min after iv injection into the femoral vein; format: ADME, organism-based; details: in vivo, 0.5 h
# Rattus norvegicus [38] = experiment: Distribution in content of colon of healthy rat 4 hr after iv injection into the femoral vein; format: ADME, organism-based; details: in vivo
# Rattus norvegicus [39] = experiment: Distribution in spleen of healthy rat 24 hr after iv injection into the femoral vein; format: ADME, organism-based; details: in vivo
# Rattus norvegicus [40] = experiment: Distribution in lung of healthy rat 4 hr after iv injection into the femoral vein; format: ADME, organism-based; details: in vivo
# Rattus norvegicus [41] = experiment: Distribution in content of small intestine of healthy rat 4 hr after iv injection into the femoral vein; format: ADME, organism-based; details: in vivo
# Rattus norvegicus [42] = experiment: Distribution in stomach of healthy rat 5 min after iv injection into the femoral vein; format: ADME, organism-based; details: in vivo
# Rattus norvegicus [43] = experiment: Distribution in spleen of healthy rat 15 min after iv injection into the femoral vein; format: ADME, organism-based; details: in vivo, 0.25 h
# Rattus norvegicus [44] = experiment: Distribution in spleen of healthy rat 5 min after iv injection into the femoral vein; format: ADME, organism-based; details: in vivo
# Rattus norvegicus [45] = experiment: Distribution in spleen of healthy rat 30 min after iv injection into the femoral vein; format: ADME, organism-based; details: in vivo, 0.5 h
# Rattus norvegicus [46] = experiment: Distribution in content of colon of healthy rat 5 min after iv injection into the femoral vein; format: ADME, organism-based; details: in vivo
# Rattus norvegicus [47] = experiment: Distribution in content of colon of healthy rat 24 hr after iv injection into the femoral vein; format: ADME, organism-based; details: in vivo
# Rattus norvegicus [48] = experiment: Distribution in liver of healthy rat 4 hr after iv injection into the femoral vein; format: ADME, organism-based; details: in vivo
# Rattus norvegicus [49] = experiment: Distribution in blood of healthy rat 24 hr after iv injection into the femoral vein; format: ADME, organism-based; details: in vivo
# Rattus norvegicus [50] = experiment: Distribution in small intestine of healthy rat 30 min after iv injection into the femoral vein; format: ADME, organism-based; details: in vivo, 0.5 h
# Rattus norvegicus [51] = experiment: Distribution in lung of healthy rat 5 min after iv injection into the femoral vein; format: ADME, organism-based; details: in vivo
# Rattus norvegicus [52] = experiment: Distribution in blood of healthy rat 15 min after iv injection into the femoral vein; format: ADME, organism-based; details: in vivo, 0.25 h
# Rattus norvegicus [53] = experiment: Distribution in liver of healthy rat 24 hr after iv injection into the femoral vein; format: ADME, organism-based; details: in vivo
# Rattus norvegicus [54] = experiment: Distribution in bladder and urine of healthy rat 30 min after iv injection into the femoral vein; format: ADME, organism-based, Urinary bladder/Urine; details: in vivo, 0.5 h
# Rattus norvegicus [55] = experiment: Distribution in stomach of healthy rat 24 hr after iv injection into the femoral vein; format: ADME, organism-based; details: in vivo
# Rattus norvegicus [56] = experiment: Distribution in small intestine of healthy rat 5 min after iv injection into the femoral vein; format: ADME, organism-based; details: in vivo
# [57] = Distribution in feces of healthy rat 24 hr after iv injection into the femoral vein; format: ADME, organism-based; details: faeces, read-out: Organ distribution
# Rattus norvegicus [58] = experiment: Distribution in blood of healthy rat 30 min after iv injection into the femoral vein; format: ADME, organism-based; details: in vivo, 0.5 h
# Rattus norvegicus [59] = experiment: Distribution in lung of healthy rat 24 hr after iv injection into the femoral vein; format: ADME, organism-based; details: in vivo
# Rattus norvegicus [60] = experiment: Distribution in thyroid gland of healthy rat 4 hr after iv injection into the femoral vein; format: ADME, organism-based; details: in vivo
# Rattus norvegicus [61] = experiment: Distribution in small intestine of healthy rat 15 min after iv injection into the femoral vein; format: ADME, organism-based; details: in vivo, 0.25 h
# Rattus norvegicus [62] = experiment: Distribution in stomach of healthy rat 15 min after iv injection into the femoral vein; format: ADME, organism-based; details: in vivo, 0.25 h
# Rattus norvegicus [63] = experiment: Distribution in kidney of healthy rat 15 min after iv injection into the femoral vein; format: ADME, organism-based; details: in vivo, 0.25 h
compound,measurement,setting,value
N=C(N)NCCC[C@H](NC(=O)[C@@H]1C[C@@H]2CCCC[C@@H]2N1C(=O)[C@H]1Cc2ccccc2CN1C(=O)[C@H](CO)NC(=O)[C@H](Cc1cccs1)NC(=O)CNC(=O)[C@@H]1C[C@@H](O)CN1C(=O)[C@@H]1CCCN1C(=O)[C@H](CCCNC(=N)N)NC(=O)[C@@H](CCCNC(=N)N)NC(=O)c1ccc(CN2CCCNCCNCCCNCC2)cc1)C(=O)O,Organ distribution,Rattus norvegicus [1],3.83%
same,Organ distribution,Rattus norvegicus [2],0.11%
same,Organ distribution,Rattus norvegicus [3],0.82%
same,Organ distribution,Rattus norvegicus [4],0.19%
same,Organ distribution,Rattus norvegicus [5],0.01%
same,Organ distribution,Rattus norvegicus [6],0.2%
same,Organ distribution,Rattus norvegicus [7],0.12%
same,Organ distribution,Rattus norvegicus [8],20.3%
same,Organ distribution,Rattus norvegicus [9],4.48%
same,IC50,B2 bradykinin receptor [10],8.03 nM
same,Organ distribution,Rattus norvegicus [11],13.2%
same,Organ distribution,Rattus norvegicus [12],0.46%
same,Organ distribution,Rattus norvegicus [13],5.25%
same,Organ distribution,Rattus norvegicus [14],0.12%
same,Organ distribution,Rattus norvegicus [15],8.46%
same,Organ distribution,Rattus norvegicus [16],2.79%
same,Organ distribution,Rattus norvegicus [17],0.55%
same,Organ distribution,Rattus norvegicus [18],0.17%
same,Organ distribution,Rattus norvegicus [19],74.9%
same,Organ distribution,Rattus norvegicus [20],0.48%
same,Organ distribution,Rattus norvegicus [21],0.91%
same,Organ distribution,Rattus norvegicus [22],1.83%
same,Organ distribution,Rattus norvegicus [23],4.33%
same,Organ distribution,Rattus norvegicus [24],4.84%
same,Organ distribution,Rattus norvegicus [25],0.09%
same,Organ distribution,Rattus norvegicus [26],0.44%
same,Organ distribution,Rattus norvegicus [27],4.31%
same,Organ distribution,Rattus norvegicus [28],79.9%
same,Organ distribution,Rattus norvegicus [29],0.5%
same,Organ distribution,Rattus norvegicus [30],1%
same,Organ distribution,Rattus norvegicus [31],0.06%
same,Organ distribution,Rattus norvegicus [32],0.71%
same,IC50,B2 bradykinin receptor [33],14 nM
same,Organ distribution,Rattus norvegicus [34],0.11%
same,Organ distribution,Rattus norvegicus [35],3.07%
same,Organ distribution,Rattus norvegicus [36],0.65%
same,Organ distribution,Rattus norvegicus [37],8.86%
same,Organ distribution,Rattus norvegicus [38],6.96%
same,Organ distribution,Rattus norvegicus [39],0.08%
same,Organ distribution,Rattus norvegicus [40],0.1%
same,Organ distribution,Rattus norvegicus [41],1.85%
same,Organ distribution,Rattus norvegicus [42],1.55%
same,Organ distribution,Rattus norvegicus [43],0.19%
same,Organ distribution,Rattus norvegicus [44],0.27%
same,Organ distribution,Rattus norvegicus [45],0.19%
same,Organ distribution,Rattus norvegicus [46],0.22%
same,Organ distribution,Rattus norvegicus [47],0.56%
same,Organ distribution,Rattus norvegicus [48],5.03%
same,Organ distribution,Rattus norvegicus [49],0.5%
same,Organ distribution,Rattus norvegicus [50],1.67%
same,Organ distribution,Rattus norvegicus [51],1.2%
same,Organ distribution,Rattus norvegicus [52],8.62%
same,Organ distribution,Rattus norvegicus [53],2.72%
same,Organ distribution,Rattus norvegicus [54],33%
same,Organ distribution,Rattus norvegicus [55],0.06%
same,Organ distribution,Rattus norvegicus [56],2.92%
same,dose excreted at 24 h,[57],8.4%
same,Organ distribution,Rattus norvegicus [58],5.5%
same,Organ distribution,Rattus norvegicus [59],0.04%
same,Organ distribution,Rattus norvegicus [60],0.02%
same,Organ distribution,Rattus norvegicus [61],3.74%
same,Organ distribution,Rattus norvegicus [62],1.13%
same,Organ distribution,Rattus norvegicus [63],7%
